Experimental data taken from US20250262215A1, “USE OF CYCLIN E1 STATUS AS A PREDICTIVE BIOMARKER FOR TREATING CANCER WITH WEE1 INHIBITORS” (Zeno Management, Inc., priority 2022, published 2025).

Experiments:
[1] = tested on: CCNE1-amplified platinum-resistant ovarian cancer; parameters: key: CR: complete response; PR: partial response; SD: stable disease; PD: progressive disease; NE: not evaluable; NA: not available; settings: one subject, before Azenosertib; cited from earlier work
[2] = tested on: SKOV3 cells (non-CCNE1-amplified, wild-type CCNE1 CN=2); assay: SKOV3 cell line-derived xenograft (CDX), tumor growth inhibition; format: in vivo, mice; settings: 80 mg/kg Azenosertib daily
Description: Mice were inoculated with SKOV3 cells (non-CCNE1-amplified, wild-type CCNE1 CN=2) on the right flank with the single cell suspension of 95% viable tumor cells (1×10^7) in 100 μL McCoy's 5a and Matrigel mixture (1:1 ratio) without serum for the tumor development. Animals were randomized and treated with vehicle (20% HP-β-CD) or 80 mg/kg Azenosertib daily for 21 days when the mean tumor volume reached 215 mm^3. Tumor growth inhibition (TGI) was calculated using the following equation TGI=(1−(Td−T0)/(Cd−C0))×100%. Td and Cd are the mean tumor volumes of the treated and control animals, and T0 and C0 are the mean tumor volumes of the treated and control animals at the start of the experiment. […] (FIGS. 6A and 6B).

[3] = tested on: HCC1806 human triple negative breast cancer cells (CCNE1-amplified, CN=7); assay: HCC1806 xenograft, tumor growth; format: in vivo, BALB/c nude mice; settings: 80 mg/kg Azenosertib daily; after 28 days
Description: 1×10^6 HCC1806 human triple negative breast cancer cells (CCNE1-amplified, CN=7) were inoculated into the right flank of ten 6-8-week-old female BALB/c nude mice. Animals were randomized and treatment started when the mean tumor volume reached 155 mm^3. Animals were treated with vehicle (20% HP-β-CD) or 80 mg/kg Azenosertib daily and tumor volumes and body weight were measured twice weekly.

[4] = tested on: CCNE1-amplified platinum-resistant ovarian cancer; assay: Azenosertib in one heavily pre-treated subject (Example 10); format: in vivo, human; settings: at least 400 mg once a day, 5 days on, two off days, for 11 months
Description: The subject was selected to have CCNE1-amplified status (confirmed by Foundation assay) and was administered Azenosertib in accordance with an intermittent dosing schedule of at least 400 mg Azenosertib once a day for five consecutive days, followed by two off days for 11 months. The subject is a person who received 10 prior lines of therapy: (1) Avelumab (SD); (2) Doxorubicin Liposomal (PD); (3) Topotecan/bevacizumab (PD); (4) Cyclophosphamide/bevacizumab (unk); (5) XMT1536 (NaPi2b ADC) (PR); (6) APG115 (MDM2 inh)/Pembrolizumab (SD); (7) ABBV-155 ([…] ADC) (PD); (8) NC 318 (Siglec-15 mA B) (SD); (9) SM 08502 (CLK inhibitor) (PD); (10) NBMBMX (HDAC8 inh) (SD).

[5] = tested on: OVCAR3 CCNE1-amplified (CN = 14) (Cyclin E1-high); assay: Azenosertib and paclitaxel combination study, OVCAR3 tumors; format: in vivo, mice; settings: Azenosertib 60 mg/kg QD × 28 and/or paclitaxel 5 mg/kg 4 days on, 3 days off × 4 cycles
Description: (§1) To evaluate the effects of Azenosertib in combination with paclitaxel, mice were inoculated with A 2780 (non-CCNE1-amplified, CN=2) (FIGS. 10A and 10B) or OVCAR3 (CCNE1 amplified, CN=14) (FIG. 11A and FIG. 11B) cells. Animals were randomized and treated as summarized in Table 2 once the mean tumor volume reached a specified size.

[6] = tested on: OVCAR8 (non=CCNE1-amplified) CDX; assay: OVCAR8 CDX model, tumor growth inhibition; format: in vivo, mice; settings: 80 mg/kg Azenosertib daily for 39 days
[7] = tested on: A2780 non-CCNE1-amplified (CN = 2) (Cyclin E1-low); assay: Azenosertib and paclitaxel combination study, A2780 tumors; format: in vivo, mice; settings: Azenosertib 60 mg/kg QD and/or paclitaxel 10 mg/kg, schedules of Table 2
Description: as §1

[8] = tested on: SKOV3, OVCAR3 and HCC1806 tumors; assay: Tolerability in tumor-bearing mice dosed orally every day (Example 3); format: in vivo, NOD/SCID mice or BALB/c nude mice
Description: NOD/SCID mice (SKOV3-Cyclin E1-low and OVCAR3-Cyclin E1-high) or BALB/c nude mice (HCC1806) bearing corresponding tumors were dosed orally every day for the time as shown in FIGS. 5A and 8A. Treatment was well-tolerated and the change in tumor volume was plotted against time of administration. Target engagement of Azenosertib (decreased pCDK1) and γH2AX were examined by IHC in tumors after 12 hrs of Azenosertib treatment in SKOV3-Cyclin E1-low and OVCAR3-Cyclin E1-high cells. Y-axis represents the sum of H-score evaluated by 3 independent pathologists (FIGS. 4B and 4C). Replication stress markers pCHK1 and γH2AX were determined by Western Blot in OVCAR3 tumor samples with or without Azenosertib treatment for 12 hrs (FIG. 4D).

[9] = tested on: OVCAR-3 cells (CCNE1-amplified, CN=14); assay: OVCAR-3 xenograft, tumor growth inhibition; format: in vivo, NOD/SCID mice; settings: 80 mg/kg Azenosertib daily; after 28 days
Description: 6-8 weeks old female NOD/SCID mice were inoculated with OVCAR-3 cells (CCNE1-amplified, CN=14) into the right flank. Animals were randomized and treated with […] (20% HP-β-CD) or 80 mg/kg Azenosertib daily once the mean tumor volume reached 111 mm^3. Tumor volumes and body weight were measured twice weekly. […] Reduction in tumor growth was also observed in animals treated with 40 mg/kg Azenosertib daily, 60 mg/kg Azenosertib daily, 80 mg/kg Azenosertib daily. (FIGS. 8C and 8D).

HGSOC cells = assay: Growth rate inhibition (GR) by CellTiter-Glo and GR calculator; format: cell-based; settings: for effect on growth rate (GR): relative to untreated control
Description: To confirm whether Cyclin E1 expression levels were responsible for increased sensitivity to Azenosertib, OV90, Kuramochi and COV362 cells (low endogenous expression levels of Cyclin E1) were transduced with a lentiviral vector carrying the CCNE1 gene or with an empty vector control. Stable OV90, Kuramochi and COV362 cell lines were established by puromycin selection. Cyclin E1 overexpression in the stable OV90 cell line compared to empty vector control cells was confirmed by Western blotting (FIG. 1C). […] Sensitization of HGSOC cell lines by overexpression of Cyclin E1 to Azenosertib was assessed by plotting the growth-rate (GR) inhibition in FIG. 1D. It was observed that Cyclin E1 overexpression sensitized HGSOC cell lines to Azenosertib by further decreasing growth rate and cell viability compared to control empty vector cell lines (FIG. 1D). GR50 and IC50 values of Azenosertib were determined by CellTiter-Glo (CTG) assay and the GR calculator.
HGSOC cells were assessed for growth rate inhibition (GR) in the presence of Azenosertib (relative to an untreated control). GR value is independent of cell division rate and was determined as described in Hafner et al. (Curr. Protoc. Chem. Biol. 9, 96-116 (2017)). HGSOC cells with high Cyclin E1 protein expression were amongst the most sensitive to Azenosertib. […] (FIG. 2). […] In Cyclin E1-low ovarian cancer cell lines, overexpression of Cyclin E1 by lentivirus increased sensitivity to Azenosertib.

Avelumab: prior line of therapy of the subject [reference compound]
response to prior line of therapy [1]: SD

C=CCn1c(=O)c2cnc(Nc3ccc(N4CCN(C)CC4)cc3)nc2n1-c1ccc2c(n1)[C@@](O)(CC)CC2 [Azenosertib]
average tumor growth inhibition TGI(80 mpk, Day 28) [2]: 51.5%
reduced tumor growth vs vehicle [3]: 63.5%
durable cPR [4]: −71%
Tumor Growth Inhibition [5]: 68%
average tumor growth inhibition TGI(80 mpk, Day 28) [6]: 52.8%
Tumor Growth Inhibition [7]: 34%
tolerability of treatment [8]: well-tolerated
reduced tumor growth TGI(80 mpk, Day 28) [9]: 88%
effect on growth rate (GR) (HGSOC cells; COV362, JHOMI, OAW28, OVCAR3, CAOV3, and OVCAR4 cells): cytotoxic effect
effect on growth rate (GR) (HGSOC cells; ES2 and TYK-nu cells): cytotoxic effect
effect on growth rate (GR) (HGSOC cells; OV90 and Kuramochi cells): inhibitory effect
GRmax (HGSOC cells; ovarian cancer cell lines overexpressing Cyclin E1 protein (Cyclin E1-high)): < −0.5

CC(=O)O[C@H]1C(=O)[C@@]2(C)[C@H]([C@H](OC(=O)c3ccccc3)[C@]3(O)C[C@H](OC(=O)[C@H](O)[C@@H](NC(=O)c4ccccc4)c4ccccc4)C(C)=C1C3(C)C)[C@]1(OC(C)=O)CO[C@@H]1C[C@@H]2O [Paclitaxel, paclitaxel, reference compound]
Tumor Growth Inhibition [5]: 74%
Tumor Growth Inhibition [7]: 46%

CN1CCN(c2cc(C(=O)Nc3cc4cc(-c5cnn(C)c5)ccc4cn3)ccn2)CC1 [SM 08502, reference compound]
response to prior line of therapy [1]: PD

B1: XMT1536 (conjugate, chains of the INN, looked up)
VH: QVQLVQSGAEVVKPGASVKMSCKASGYTFTGYNIHWVKQAPGQGLEWIGAIYPGNGDTSYKQKFRGRATLTADTSTSTVYMELSSLRSEDSAVYYCARGETARATFAYWGQGTLVTVSS
VL: DIQMTQSPSSLSASVGDRVTITCSASQDIGNFLNWYQQKPGKTVKVLIYYTSSLYSGVPSRFSGSGSGTDYTLTISSLQPEDFATYYCQQYSKLPLTFGQGTKLELK
modifications: rilsodotin (auristatin) payload
response to prior line of therapy [1]: PR

B2: ABBV-155 (conjugate, chains of the INN, looked up)
VH: EVQLQESGPGLVKPSETLSLTCAVTGYSITSGYSWHWIRQFPGNGLEWMGYIHSSGSTNYNPSLKSRISISRDTSKNQFFLKLSSVTAADTAVYYCAGYDDYFEYWGQGTTVTVSS
VL: DIQMTQSPSSLSASVGDRVTITCKASQNVGFNVAWYQQKPGKSPKALIYSASYRYSGVPSRFSGSGSGTDFTLTISSLQPEDFAEYFCQQYNWYPFTFGQGTKLEIK
modifications: clezutoclax payload
response to prior line of therapy [1]: PD
